Assay results reported in PMC9060491, “Biochemical and structural characterization of an aromatic ring–hydroxylating dioxygenase for terephthalic acid catabolism” (Proceedings of the National Academy of Sciences of the …, 2022).

Assays:
[1] = biological target: T1, terephthalate dioxygenase (TPADO; TphA2/TphA3) (Comamonas sp., UniProt Q3C1D5); experiment: HPLC end point, NADH and analog consumption; assay type: biochemical; conditions: uncoupler, not oxygenated; 90 min in air, limiting NADH, with TphA1 reductase
T1 construct: gene tphA2II; alpha with C-terminal His6, coexpressed with beta from pET-DUET in E. coli; alpha3beta3 heterohexamer, 196 kDa; Rieske [2Fe-2S] and mononuclear Fe(II); with Terephthalate 1,2-dioxygenase, terminal oxygenase component subunit beta

TPADO reductase (TphA1) = biological target: T2, TPADO reductase (TphA1) (Comamonas sp., UniProt Q3C1E0); experiment: HPLC of TPADO/reductase reaction; assay type: biochemical; conditions: electron donor in the coupled system with TPADO and TPA; NADPH not used
T2 construct: gene tphA1I; C-terminal His6, expressed in E. coli; plant-type [2Fe-2S], flavin

[2] = substrate: O=C(O)c1ccc(C(=O)O)cc1; experiment: steady-state kinetics, Michaelis-Menten fit; assay type: biochemical, Comamonas sp.; conditions: ambient air (O2 not shown saturating), NADH, with TphA1 reductase

T1 sequence (Q3C1E2 whole entry, one chain of several, further chain): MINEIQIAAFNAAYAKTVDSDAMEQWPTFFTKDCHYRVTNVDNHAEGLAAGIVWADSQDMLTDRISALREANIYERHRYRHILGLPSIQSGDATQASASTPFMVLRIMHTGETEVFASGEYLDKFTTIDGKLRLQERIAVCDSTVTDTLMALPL
T2 sequence (Q3C1E0 whole entry): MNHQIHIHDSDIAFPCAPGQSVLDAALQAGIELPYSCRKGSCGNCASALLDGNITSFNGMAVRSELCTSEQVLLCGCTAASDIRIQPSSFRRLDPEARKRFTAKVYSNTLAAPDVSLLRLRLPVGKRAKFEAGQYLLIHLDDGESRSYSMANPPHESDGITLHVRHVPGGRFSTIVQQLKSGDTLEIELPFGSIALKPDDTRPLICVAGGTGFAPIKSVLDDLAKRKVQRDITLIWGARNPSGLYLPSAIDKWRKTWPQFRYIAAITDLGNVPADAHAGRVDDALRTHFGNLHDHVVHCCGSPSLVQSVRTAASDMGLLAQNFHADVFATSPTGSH

## O=C(O)c1ccc([N+](=O)[O-])cc1 [4-NBA, 4-nitrobenzoic acid]
[1]
  % NADH consumption: 100%

## NC(=O)C1=CN([C@@H]2O[C@H](COP(=O)(O)OP(=O)(O)OC[C@H]3O[C@@H](n4cnc5c(N)ncnc54)[C@H](O)[C@@H]3O)[C@@H](O)[C@H]2O)C=CC1 [NADH]
TPADO reductase (TphA1)
  HPLC of TPADO/reductase reaction: specifically in the presence of nicotinamide adenine dinucleotide hydride (NADH) rather than its phosphorylated analog

B1: terephthalate dioxygenase (TPADO; TphA2/TphA3) (Comamonas sp.) (protein)
chain: MQESIIQWHGATNTRVPFGIYTDTANADQEQQRIYRGEVWNYLCLESEIPGAGDFRTTFAGETPIVVVRDADQEIYAFENRCAHRGALIALEKSGRTDSFQCVYHAWSYNRQGDLTGVAFEKGVKGQGGMPASFCKEEHGPRKLRVAVFCGLVFGSFSEDVPSIEDYLGPEICERIERVLHKPVEVIGRFTQKLPNNWKLYFENVKDSYHASLLHMFFTTFELNRLSQKGGVIVDESGGHHVSYSMIDRGAKDDSYKDQAIRSDNERYRLKDPSLLEGFEEFEDGVTLQILSVFPGFVLQQIQNSIAVRQLLPKSISSSELNWTYLGYADDSAEQRKVRLKQANLIGPAGFISMEDGAVGGFVQRGIAGAANLDAVIEMGGDHEGSSEGRATETSVRGFWKAYRKHMGQEMQA
notes: alpha with C-terminal His6, coexpressed with beta from pET-DUET in E. coli; alpha3beta3 heterohexamer, 196 kDa; Rieske [2Fe-2S] and mononuclear Fe(II); with Terephthalate 1,2-dioxygenase, terminal oxygenase component subunit beta
[2]
  Km: 9.6 ± 1 µM
  kcat: 0.2 ± 0.005 s⁻¹
